Earlier results on two compounds are cited in PubChem BioAssay AID1259409 (Chemical Carcinogenesis Research Information System (CCRIS), 2018).

In this data set the test system is rodent chemically induced tumor inhibition, incidence and multiplicity. The data set is described as follows: CCRIS tumor inhibitor studies.

Several values for one entry are separate records, joined by “and”; a condition that tells them apart may be missing. Equal values may be shown once.

For `C=C1/C(=C\C=C2/CCC[C@]3(C)[C@@H]([C@H](C)CCCC(C)(C)O)CC[C@@H]23)C[C@@H](O)C[C@@H]1O`, the “tumour outcome (control, treated, inhibition, significance)” value (Carcinogen: 7,12-DIMETHYLBENZ[A]ANTHRACENE, 57-97-6, Dose [Inhibitor]: 0.125 NMOL 2/WK STARTING 1 WK AFTER CARCINOGEN TREATMENT AND CONTINUING FOR 9 WK (STUDY DURATION: 10 WK), Route [Inhibitor]: DERMAL, Species: MOUSE, Strain/Sex: CD-1/FEMALE, Target Tissue: Type of Lesion: SKIN: PAPILLOMA, Dose [Carcinogen]: 20 NMOL ONCE, Promoter: 12-O-TETRADECANOYLPHORBOL-13-ACETATE, 16561-29-8) is 77%, 37%, 52%, p<0.05; the “tumour outcome (control, treated, inhibition, significance)” value (Carcinogen: 7,12-DIMETHYLBENZ[A]ANTHRACENE, 57-97-6, Dose [Inhibitor]: 0.125 NMOL 2/WK STARTING 1 WK AFTER CARCINOGEN TREATMENT AND CONTINUING FOR 12 WK (STUDY DURATION: 13 WK), Route [Inhibitor]: DERMAL, Species: MOUSE, Strain/Sex: CD-1/FEMALE, Target Tissue: Type of Lesion: SKIN: PAPILLOMA, Dose [Carcinogen]: 20 NMOL ONCE, Promoter: 12-O-TETRADECANOYLPHORBOL-13-ACETATE, 16561-29-8) was 96%, 70%, 27%, p<0.05; the “tumour outcome (control, treated, inhibition, significance)” value (Carcinogen: 7,12-DIMETHYLBENZ[A]ANTHRACENE, 57-97-6, Dose [Inhibitor]: 0.25 NMOL 2/WK STARTING 1 WK AFTER CARCINOGEN TREATMENT AND CONTINUING FOR 9 WK (STUDY DURATION: 10 WK), Route [Inhibitor]: DERMAL, Species: MOUSE, Strain/Sex: CD-1/FEMALE, Target Tissue: Type of Lesion: SKIN: PAPILLOMA, Dose [Carcinogen]: 20 NMOL ONCE, Promoter: 12-O-TETRADECANOYLPHORBOL-13-ACETATE, 16561-29-8) is listed as 77%, 33%, 57%, p<0.05; the “tumour outcome (control, treated, inhibition, significance)” value (Carcinogen: 7,12-DIMETHYLBENZ[A]ANTHRACENE, 57-97-6, Dose [Inhibitor]: 0.25 NMOL 2/WK STARTING 1 WK AFTER CARCINOGEN TREATMENT AND CONTINUING FOR 12 WK (STUDY DURATION: 13 WK), Route [Inhibitor]: DERMAL, Species: MOUSE, Strain/Sex: CD-1/FEMALE, Target Tissue: Type of Lesion: SKIN: PAPILLOMA, Dose [Carcinogen]: 20 NMOL ONCE, Promoter: 12-O-TETRADECANOYLPHORBOL-13-ACETATE, 16561-29-8) was 96%, 70%, 27%, p<0.05; the “tumour outcome (control, treated, inhibition, significance)” value (Carcinogen: 7,12-DIMETHYLBENZ[A]ANTHRACENE, 57-97-6, Dose [Inhibitor]: 0.5 NMOL 2/WK STARTING 1 WK AFTER CARCINOGEN TREATMENT AND CONTINUING FOR 12 WK (STUDY DURATION: 13 WK), Route [Inhibitor]: DERMAL, Species: MOUSE, Strain/Sex: CD-1/FEMALE, Target Tissue: Type of Lesion: SKIN: PAPILLOMA, Dose [Carcinogen]: 20 NMOL ONCE, Promoter: 12-O-TETRADECANOYLPHORBOL-13-ACETATE, 16561-29-8) is 83%, 43%, 48%, p<0.05 and 96%, 59%, 39%, p<0.05; the “tumour outcome (control, treated, inhibition, significance)” value (Carcinogen: 7,12-DIMETHYLBENZ[A]ANTHRACENE, 57-97-6, Dose [Inhibitor]: 0.5 NMOL 2/WK STARTING 1 WK AFTER CARCINOGEN TREATMENT AND CONTINUING FOR 15 WK (STUDY DURATION: 16 WK), Route [Inhibitor]: DERMAL, Species: MOUSE, Strain/Sex: CD-1/FEMALE, Target Tissue: Type of Lesion: SKIN: PAPILLOMA, Dose [Carcinogen]: 20 NMOL ONCE, Promoter: 12-O-TETRADECANOYLPHORBOL-13-ACETATE, 16561-29-8) was 88%, 59%, 33%, p<0.05 and 92%, 77%, 16%, not significant. In addition, the “tumour outcome (control, treated, inhibition, significance)” value is recorded as 47%, 4%, 91%, p<0.05 (Carcinogen: 7,12-DIMETHYLBENZ[A]ANTHRACENE, 57-97-6, Dose [Inhibitor]: 2 NMOL 2/WK STARTING 1 WK AFTER CARCINOGEN TREATMENT AND CONTINUING FOR 9 WK (STUDY DURATION: 10 WK), Route [Inhibitor]: DERMAL, Species: MOUSE, Strain/Sex: CD-1/FEMALE, Target Tissue: Type of Lesion: SKIN: PAPILLOMA, Dose [Carcinogen]: 20 NMOL ONCE, Promoter: 12-O-TETRADECANOYLPHORBOL-13-ACETATE, 16561-29-8); 83%, 12%, 86%, p<0.05 (Carcinogen: 7,12-DIMETHYLBENZ[A]ANTHRACENE, 57-97-6, Dose [Inhibitor]: 2 NMOL 2/WK STARTING 1 WK AFTER CARCINOGEN TREATMENT AND CONTINUING FOR 12 WK (STUDY DURATION: 13 WK), Route [Inhibitor]: DERMAL, Species: MOUSE, Strain/Sex: CD-1/FEMALE, Target Tissue: Type of Lesion: SKIN: PAPILLOMA, Dose [Carcinogen]: 20 NMOL ONCE, Promoter: 12-O-TETRADECANOYLPHORBOL-13-ACETATE, 16561-29-8); 88%, 18%, 80%, p<0.05 (Carcinogen: 7,12-DIMETHYLBENZ[A]ANTHRACENE, 57-97-6, Dose [Inhibitor]: 2 NMOL 2/WK STARTING 1 WK AFTER CARCINOGEN TREATMENT AND CONTINUING FOR 15 WK (STUDY DURATION: 16 WK), Route [Inhibitor]: DERMAL, Species: MOUSE, Strain/Sex: CD-1/FEMALE, Target Tissue: Type of Lesion: SKIN: PAPILLOMA, Dose [Carcinogen]: 20 NMOL ONCE, Promoter: 12-O-TETRADECANOYLPHORBOL-13-ACETATE, 16561-29-8); 6/9 (67%), 5/9 (56%), 16%, not significant (Carcinogen: N-METHYL-N-NITROSOUREA [684-93-5], Dose [Inhibitor]: 0, 0.8 ML OF 10 µM ETHANOL SOLUTION ADMINISTERED IN NORMAL SALINE VIA CATHETER 1X/WK FOR 7 WK BEGINNING 3 WK POST CARCIN, Route [Inhibitor]: INTRAVESICAL, Species: RAT, Strain/Sex: F344/FEMALE, Target Tissue: Type of Lesion: URINARY BLADDER: TUMOR, Dose [Carcinogen]: ONCE/2 WK FOR 6 WK (STUDY DURATION: 31 WK; DOSE NOT REPORTED), Promoter: NONE).
As to `S=C=NCC(c1ccccc1)c1ccccc1`, the “tumour outcome (control, treated, inhibition, significance)” value was 100%, 60%, 40%, p<0.05 (Carcinogen: 4-(METHYLNITROSAMINO)-1-(3-PYRIDYL)-1-BUTANONE, 64091-91-4, Dose [Inhibitor]: 0, 1 UMOL ONCE 2 HR PRIOR TO CARCINOGEN DOSE (STUDY DURATION: 16 WK), Route [Inhibitor]: GAVAGE, Species: MOUSE, Strain/Sex: STRAIN-A/FEMALE, Target Tissue: Type of Lesion: LUNG: ADENOMA, Dose [Carcinogen]: 10 UMOL IN 0.1 ML SALINE ONCE, Promoter: NONE USED) and 100%, 45%, 55%, p<0.05 (Carcinogen: 4-(METHYLNITROSAMINO)-1-(3-PYRIDYL)-1-BUTANONE, 64091-91-4, Dose [Inhibitor]: 0, 5 UMOL ONCE 2 HR PRIOR TO CARCINOGEN DOSE (STUDY DURATION: 16 WK), Route [Inhibitor]: GAVAGE, Species: MOUSE, Strain/Sex: STRAIN-A/FEMALE, Target Tissue: Type of Lesion: LUNG: ADENOMA, Dose [Carcinogen]: 10 UMOL IN 0.1 ML SALINE ONCE, Promoter: NONE USED).
